Legend:
[1] = test system: Caco-2; assay: cell viability relative to DMSO; higher = less toxic; details: 72 h
[2] = test system: Vero E6; assay: as above; details: 72 h
[3] = test system: Calu-3; assay: as above; details: 72 h
[4] = test system: HepG2; assay: as above; details: 72 h
[5] = test system: U2OS; assay: as above; details: 72 h
[6] = test system: Caco-2; assay: drug sensitivity score (DSS) for viability; higher = more toxic; extreme values may be limits of the assay; details: 72 h
[7] = test system: Vero E6; assay: as above; details: 72 h
[8] = test system: Calu-3; assay: as above; details: 72 h
[9] = test system: HepG2; assay: as above; details: 72 h
[10] = test system: U2OS; assay: as above; details: 72 h
[11] = test system: A549-ACE2 infected with SARS-CoV-2; assay: cell count relative to DMSO; higher = less toxic; details: 24 h
[12] = test system: A549-ACE2; assay: phospholipidosis EC50; higher = less potent phospholipidosis inducer
[13] = test system: A549-ACE2; assay: drug-induced phospholipidosis relative to tamoxifen; higher = more phospholipidosis
[14] = test system: A549-ACE2 infected with SARS-CoV-2; assay: SARS-CoV-2 infection rate relative to DMSO; higher = more infection; details: 24 h
[15] = test system: A549-ACE2 infected with SARS-CoV-2; assay: morphology score (similarity to uninfected cells); higher = more like uninfected cells; details: 24 h
[16] = test system: Caco-2; assay: relative viability EC50 (midpoint between 100% and the lowest measured viability); higher = less toxic; details: 72 h
[17] = test system: Vero E6; assay: as above; details: 72 h
[18] = test system: Calu-3; assay: as above; details: 72 h
[19] = test system: HepG2; assay: as above; details: 72 h
[20] = test system: U2OS; assay: as above; details: 72 h

Cc1cccc(/C=N/Nc2cc(N3CCOCC3)n3nc(-c4ccncc4)cc3n2)c1 [APY0201]
Details	SARS-CoV-2 infection rate [%]	cell count [%]	cell viability [%]	morphology score	phospholipidosis EC50 [µM]
[1], 1 nM	–	–	95.5	–	–
[1], 10 nM	–	–	101	–	–
[1], 100 nM	–	–	92.8	–	–
[1], 1000 nM	–	–	97	–	–
[1], 10000 nM	–	–	80.1	–	–
[2], 1 nM	–	–	110	–	–
[2], 10 nM	–	–	104	–	–
[2], 100 nM	–	–	96.7	–	–
[2], 1000 nM	–	–	45.6	–	–
[2], 10000 nM	–	–	38.2	–	–
[3], 1 nM	–	–	111	–	–
[3], 10 nM	–	–	101	–	–
[3], 100 nM	–	–	87.8	–	–
[3], 1000 nM	–	–	85.8	–	–
[3], 10000 nM	–	–	98.1	–	–
[4], 1 nM	–	–	99.8	–	–
[4], 10 nM	–	–	98.9	–	–
[4], 100 nM	–	–	82.8	–	–
[4], 1000 nM	–	–	31.3	–	–
[4], 10000 nM	–	–	22.3	–	–
[5], 1 nM	–	–	94.2	–	–
[5], 10 nM	–	–	97.7	–	–
[5], 100 nM	–	–	93.9	–	–
[5], 1000 nM	–	–	91.2	–	–
[5], 10000 nM	–	–	77.6	–	–
[11], 0.3 µM	–	113	–	–	–
[11], 3 µM	–	98	–	–	–
[11], 10 µM	–	94	–	–	–
[11], 30 µM	–	91	–	–	–
[12], 24 h	–	–	–	–	0.3
[12], 48 h	–	–	–	–	1.08
[12], 72 h	–	–	–	–	0.851
[14], 0.3 µM	41	–	–	–	–
[14], 3 µM	72	–	–	–	–
[14], 10 µM	72	–	–	–	–
[14], 30 µM	65	–	–	–	–
[15], 0.3 µM	–	–	–	0.21	–
[15], 3 µM	–	–	–	-0.06	–
[15], 10 µM	–	–	–	-0.03	–
[15], 30 µM	–	–	–	-0.04	–

Details	drug sensitivity score	relative viability EC50 [µM]
[6]	1	–
[7]	10.4	–
[8]	2	–
[9]	14.8	–
[10]	1.2	–
[16]	–	> 10
[17]	–	0.392
[18]	–	> 10
[19]	–	0.24
[20]	–	> 10

drug-induced phospholipidosis [%], [13]
Details	0.3 µM	0.833333 µM	3.33333 µM	6.66667 µM	10 µM	30 µM
24 h	100	98.4	102	100	85.1	97.8
48 h	105	98.3	47.8	39.8	–	61.8
72 h	141	95	33.5	42.7	–	–

From the supplement of paper PMC13380429
